Data set [1] concerns Trypanosoma cruzi (Tulahuen C4). The experiment in a line: In vitro anti-T. cruzi activity (β-galactosidase CPRG colorimetric assay in VERO monolayer). As to conditions: for inhibition at 10 µg/mL / IC50: Trypanosoma cruzi, TULAHUEN, Vero; for inhibition at 10 µg/mL: 120 h, 10 μg/mL of each compound, 120 hours, read-out: T. cruzi Inhib. (%); for IC50: Table 3, read-out: IC50 T. cruzi. It is filed as cell-based.

The subject of data set [2] is axenic amastigotes of L. amazonensis (strain MHOM/BR/76/LTB-012). The experiment in a line: microbe, parasite or virus in culture. As to conditions: Leishmania amazonensis, 72 h, read-out: IC50 L. amazonensis.
For the next data set, the system named is peritoneal macrophages. The experiment in a line: Toxicity to peritoneal macrophages (Trypan Blue count). The data set is classed as cell-based, BALB/C mouse. How it is done: Peritoneal macrophages were prepared as follows. Non-inflammatory macrophages (10^6) were collected from each BALB/C mouse. The cells adhered at 37° C. after 2 h under 5% CO2 in a CO2 incubator. The plates were then rinsed two to three times with 0.5 mL of RPMI+buffer MOPS without fetal calf serum to eliminate non-adhering cells. The supernatant on the plates was replaced by fresh medium (RPMI+glutamine+FCS+antibiotics), 0.5 mL of medium per well. To determine the toxicity of the compounds to macrophages, dilutions of compounds were added on a part of the macrophages prepared above. […] The medium was then removed and 1 μL of sterile Trypan Blue was added. Cover glasses N° 1 were left where cells were plated and then the number of macrophages in a microscope was determined with a haemocytometer. All experiments were performed in triplicate.

Data set [3] has as its system axenic amastigotes of L. amazonensis (strain MHOM/BR/76/LTB-012). The note with it: read-out: L. amazonensis IC50; Table 8b.
For another data set, the system named is 3T3 cells. Nature of the data set: Cell growth inhibition bioassay (sulforhodamine B). The data set is classed as cell-based, mouse. As to conditions: 48 h, SRB. How it is done: (§1) The cytotoxicity of compounds was assayed as follows. […] Appropriate solvent controls were tested for comparison. The percent inhibition of cell growth relative to the control was evaluated colorimetrically using a sulforhodamine B dye by comparison to the control. The calorimetric procedure followed that published in Skehan et al., J. Nat. Cancer Inst., […], pp. 1107-1112 (1990) and Boyd & Paull, Drug Dev. Res., Vol. 34, pp. 91-109 (1995). […] The cell lines are: 3T3 cells are BALB/3T3 clone A31 embryonic mouse fibroblast cells; H460 cells are human large cell lung cancer cells; DU145 cells are human prostate carcinoma cells; MCF-7 cells are human breast adenocarcinoma cells; M-14 cells are human melanoma cells; HT-29 cells are human colon adenocarcinoma cells; PC3 cells are human prostate adenocarcinoma cells; K562 cells are human chronic myelogenous leukemia cells; and VERO cells are African Green Monkey kidney epithelial cells.

For the next data set, the system named is M-14 cells. Nature of the data set: Cell growth inhibition bioassay (sulforhodamine B). The data set is classed as cell-based, human. As to conditions: 48 h, SRB. How it is done:
as §1

The next data set relates to HT-29 cells. Nature of the data set: Cell growth inhibition bioassay (sulforhodamine B). It is filed as cell-based, human. As to conditions: 48 h, SRB. How it is done: as §1
In the next data set the test system is DU145 cells. Nature of the data set: Cell growth inhibition bioassay (sulforhodamine B). The data set is classed as cell-based, human. The note with it: 48 h, SRB. How it is done: as §1
A further data set has as its system MCF-7 cells. The experiment in a line: Cell growth inhibition bioassay (sulforhodamine B). The data set is classed as cell-based, human. The note with it: 48 h, SRB. How it is done:
as §1

The test system of another data set is H460 cells. The experiment in a line: Cell growth inhibition bioassay (sulforhodamine B). The data set is classed as cell-based, human. The note with it: 48 h, SRB. How it is done: as §1
A further data set concerns K562 cells. Nature of the data set: Cell growth inhibition bioassay (sulforhodamine B). The data set is classed as cell-based, human. The note with it: 48 h, SRB. How it is done: as §1
Another data set concerns VERO cells. The experiment in a line: Cell growth inhibition bioassay (sulforhodamine B). The data set is classed as cell-based, African Green Monkey. The note with it: 48 h, SRB. How it is done: as §1
A further data set concerns M. tuberculosis H37Rv. Nature of the data set: Conventional aerobic (MABA) culture assay, luminescence MIC. The data set is classed as cell-based, Mycobacterium tuberculosis. As to conditions: aerobic, 7 days, H37Rv.
For a further data set, the system named is L. amazonensis. As to conditions: intralesional, compounds 5 mg/kg/day; for Mean lesion size (mm) / Mean parasite quantification (per 10^6) in lesion per mg (±SD) / Mean lesion wt (mg) (±SD) / % Variation of lesion wt / % reduction of parasite burden in the lesion: Glucantime 33 mg Sb(v)/kg/day; for Mean lesion wt (mg) (±SD): BALB/c mice n=10; for % Variation of lesion wt / % reduction of parasite burden in the lesion: vs control.

The mark [4] stands for this setting: Mus musculus, Peritoneal macrophage, 48 h, Table 7, read-out: IC50 Macrophage.

The source of these data is patent US9061984B2 (University of Louisville Research Foundation, Inc., priority 2008, dated 2015).

≈ marks a conversion by molar mass, not a printed value. Like-named read-outs stand apart in the source and are kept apart here.

As usually defined, the IC50 is the concentration needed to halve the response being measured. `C=CCOc1cc(OC)c(C(=O)/C=C/c2ccc(O)c(OC)c2)c(OCC=C)c1` [Compound I-18, (2E)-1-[2-Methoxy-4,6-bis(2-propenyloxy)phenyl]-3-(3-methoxy-4-hydroxyphenyl)-2-propen-1-one]: in [1], the inhibition at 10 µg/mL was determined as 27.9% and the IC50 was greater than 25 µM. In data set [2], the IC50 turned out to be 107 µM.
The matching figures for `C=CCOc1cc(OC)c(C(=O)/C=C/C=C/c2ccccc2)c(OCC=C)c1` [Compound I-21, (2E,4E)-1-[2-Methoxy-4,6-bis(2-propenyloxy)phenyl]-5-phenyl-2,4-pentadien-1-one]: 47.7%, greater than 25 µM and 75.2 µM.
For `C=CCOc1cc(OC)c(C(=O)/C=C/c2ccc[nH]2)c(OCC=C)c1` [Compound I-22, (2E)-3-(1H-pyrrol-2-yl)-1-[2-methoxy-4,6-bis(2-propenyloxy)phenyl]-2-propen-1-one], the inhibition at 10 µg/mL in [1] came out at 1.25%. Further, the IC50 in [1] was greater than 100 µM; in [2] it was 94.3 µM.
Take `COc1cc(O)cc(O)c1C(=O)/C=C/c1ccccc1` [Compound I-29, (2E)-1-(2,4-Dihydroxy-6-methoxyphenyl)-3-(phenyl)-2-propen-1-one]: the IC50 in data set [2] came to 15.9 µM; in the data set with peritoneal macrophages (setting [4]), 27 µM.
As for `COc1cc(O)cc(O)c1C(=O)/C=C/c1ccc(O)cc1` [Compound I-30, (2E)-1-(2,4-Dihydroxy-6-methoxyphenyl)-3-(4-hydroxyphenyl)-2-propen-1-one], the values for the IC50 (in data set [2]; with peritoneal macrophages (setting [4])) were 15.7 µM and 21.7 µM, respectively.
Turning to `COc1cccc(/C=C/C(=O)c2c(O)cc(O)cc2OC)c1` [Compound I-31, (2E)-1-(2,4-Dihydroxy-6-methoxyphenyl)-3-(3-methoxyphenyl)-2-propen-1-one], the IC50 was determined as 12 µM in data set [2] and 17.6 µM in the data set with peritoneal macrophages (setting [4]).
Consider `COc1cc(O)cc(O)c1C(=O)/C=C/c1ccc(C(F)(F)F)cc1` [Compound I-32, (2E)-1-(2,4-Dihydroxy-6-methoxyphenyl)-3-[4-(trifluoromethyl)phenyl]-2-propen-1-one], for which the figures for the IC50 (in [2]; with peritoneal macrophages (setting [4])) were 8.6 µM and 17.1 µM, respectively.
As to `COc1cc(O)cc(O)c1C(=O)/C=C/c1ccc(Cl)cc1` [Compound I-33, (2E)-3-(4-Chlorophenyl)-1-(2,4-dihydroxy-6-methoxyphenyl)-2-propen-1-one], the IC50 in data set [2] turned out to be 11.2 µM; in the data set with peritoneal macrophages (setting [4]), 19 µM.
`COc1cc(O)cc(O)c1C(=O)/C=C/c1ccccc1F` [Compound I-34, (2E)-1-(2,4-Dihydroxy-6-methoxyphenyl)-3-(2-fluorophenyl)-2-propen-1-one]: the IC50 in data set [2] amounted to 11.8 µM; in the data set with peritoneal macrophages (setting [4]), 16 µM.
For `COc1cc(O)cc(O)c1C(=O)/C=C/c1ccccc1Br` [Compound I-35, (2E)-3-(2-Bromophenyl)-1-(2,4-dihydroxy-6-methoxyphenyl)-2-propen-1-one], the IC50 in data set [2] was 10.6 µM; in the data set with peritoneal macrophages (setting [4]), 14.6 µM.
On to `COc1cc(/C=C/C(=O)c2c(O)cc(O)cc2OC)ccc1O` [Compound I-37, (2E)-1-(2,4-Dihydroxy-6-methoxyphenyl)-3-(3-methoxy-4-hydroxyphenyl)-2-propen-1-one], for which, in data set [2], the IC50 amounted to 14.9 µM.
With `COc1cc(/C=C/C(=O)c2c(O)cc(O)cc2OC)cc(OC)c1OC` [Compound I-38, (2E)-1-(2,4-Dihydroxy-6-methoxyphenyl)-3-(3,4,5-trimethoxydroxyphenyl)-2-propen-1-one], the concentration for half-maximal inhibition (IC50) in data set [2] stood at 9.7 µM.
On the same count and under the same terms, next, `COc1cc(O)cc(O)c1C(=O)/C=C/C=C/c1ccccc1` [Compound I-39, (2E,4E)-1-(2,4-Dihydroxy-6-methoxyphenyl)-5-phenyl-2,4-pentadien-1-one]: 52.6 µM.
For the compound `COc1cc(O)cc(O)c1C(=O)/C=C/c1ccc(F)cc1` [Compound I-40, (2E)-1-(2,4-Dihydroxy-6-methoxyphenyl)-3-(4-fluorophenyl)-2-propen-1-one], the IC50 in [2] amounted to 11.8 µM; with peritoneal macrophages (setting [4]) it was 28.8 µM.
Consider `COc1cc(O)cc(O)c1C(=O)/C=C/c1ccc(C)cc1` [Compound I-41, (2E)-1-(2,4-Dihydroxy-6-methoxyphenyl)-3-(4-methylphenyl)-2-propen-1-one], for which the results for the concentration for half-maximal inhibition (IC50) (in [2]; in the data set on peritoneal macrophages (setting [4])) were 7.4 µM and 16.5 µM, respectively.
In the case of `O=[N+]([O-])c1ccccc1C=NNc1ncnc2sc3c(c12)CCCC3` [II-23], in data set [1] (Lab A), the “T. cruzi IC50 Lab A” value came out at 1.1 mg/L. The IC50 was 38.1 µM in data set [3] and greater than 100 µM with peritoneal macrophages. Also, the “GI50 in indicated cell line: 3T3” value in the data set on 3T3 cells was greater than 62.5 mg/L. The “GI50 in indicated cell line: M-14” value in the data set with M-14 cells is 58.9 mg/L (≈ 167 µM). Further, the “GI50 in indicated cell line: HT-29” value in the data set with HT-29 cells was determined as 70.5 mg/L (≈ 199 µM). In addition, the “GI50 in indicated cell line: DU145” value with DU145 cells was found to be 36.4 mg/L (≈ 103 µM). Moreover, the “GI50 in indicated cell line: MCF-7” value in the data set on MCF-7 cells amounted to 18.4 mg/L (≈ 52.1 µM). The “GI50 in indicated cell line: H460” value in the data set on H460 cells turned out to be 18.7 mg/L (≈ 52.9 µM). Moreover, the “GI50 in indicated cell line: K562” value in the data set with K562 cells worked out at 61.6 mg/L (≈ 174 µM). For the same compound, the “GI50 in indicated cell line: VERO” value in the data set on VERO cells was greater than 62.5 mg/L. Moreover, the “MIC MABA” value with M. tuberculosis H37Rv is greater than 100 mg/L.
`N#Cc1ccc(C=NNc2ncnc3sc4c(c23)CCCC4)cc1` [II-32]: the values for the IC50 (in data set [3]; in the data set on peritoneal macrophages) were 10.8 µM and 53.9 µM, respectively. Also, in the data set with 3T3 cells, the “GI50 in indicated cell line: 3T3” value turned out to be 50.1 mg/L (≈ 150 µM). Moreover, in the data set with M-14 cells, the “GI50 in indicated cell line: M-14” value is greater than 62.5 mg/L. Besides, the “GI50 in indicated cell line: HT-29” value in the data set on HT-29 cells is greater than 62.5 mg/L. Moreover, the “GI50 in indicated cell line: DU145” value in the data set on DU145 cells is greater than 62.5 mg/L. Also, the “GI50 in indicated cell line: MCF-7” value in the data set with MCF-7 cells worked out at 33.9 mg/L (≈ 102 µM). For the same compound, in the data set on H460 cells, the “GI50 in indicated cell line: H460” value is greater than 62.5 mg/L. The “GI50 in indicated cell line: K562” value in the data set with K562 cells was greater than 62.5 mg/L. Further, the “GI50 in indicated cell line: VERO” value with VERO cells is greater than 62.5 mg/L. Besides, the “MIC MABA” value in the data set with M. tuberculosis H37Rv is greater than 100 mg/L.
Consider “N-methylglucamine antimoniate [Glucantime, reference compound]”, for which, in the data set with L. amazonensis (after 4 weeks treatment), the “Mean lesion size (mm)” value is recorded as 2.1 mm, the “Mean parasite quantification (per 10^6) in lesion per mg (±SD)” value is 0 (0) amastigotes (×10^6)/mg, the “Mean lesion wt (mg) (±SD)” value is listed as 5.6 (±0.4) mg and the “% Variation of lesion wt” value was 91%. Further, the “% reduction of parasite burden in the lesion” value in the data set on L. amazonensis (after 4 weeks treatment) came to 100%. Moreover, in the data set with L. amazonensis (after 7 weeks treatment), the “Mean lesion size (mm)” value came out at 2.2 mm, the “Mean parasite quantification (per 10^6) in lesion per mg (±SD)” value was 0 (0) amastigotes (×10^6)/mg, the “Mean lesion wt (mg) (±SD)” value is 13.5 (±2.9) mg and the “% Variation of lesion wt” value was 85%. Moreover, the “% reduction of parasite burden in the lesion” value in the data set with L. amazonensis (after 7 weeks treatment) amounted to 100%. Besides, the Lesion diameter with L. amazonensis (Glucantime 33 mg/kg/day) was found to be 2.2 mm. Moreover, in the data set on L. amazonensis (Glucantime 33 mg/kg/day, after 4 weeks), the “Reduction of parasite burden After 4 weeks” value came to 100%. Further, the “Reduction of parasite burden After 7 weeks” value in the data set with L. amazonensis (Glucantime 33 mg/kg/day, after 7 weeks) came out at 100%.
